Results as given in US11524966B1 (Valo Early Discovery, Inc., priority 2017, dated 2022).

What follows are compounds tested against T1, USP25 (USP25-His6, Boston Biochem E-546) (Homo sapiens, UniProt Q9UHP3) (assay: Ubiquitin-Rhodamine 110 Assay for USP25 Activity, Example A-2). Conditions: Ubiquitin-Rhodamine 110 assay, Example A-2; read-out: USP25 A-2 IC50 range.
T1 construct: His6; purchased Boston Biochem E-546
T1 sequence (Q9UHP3 1-1055): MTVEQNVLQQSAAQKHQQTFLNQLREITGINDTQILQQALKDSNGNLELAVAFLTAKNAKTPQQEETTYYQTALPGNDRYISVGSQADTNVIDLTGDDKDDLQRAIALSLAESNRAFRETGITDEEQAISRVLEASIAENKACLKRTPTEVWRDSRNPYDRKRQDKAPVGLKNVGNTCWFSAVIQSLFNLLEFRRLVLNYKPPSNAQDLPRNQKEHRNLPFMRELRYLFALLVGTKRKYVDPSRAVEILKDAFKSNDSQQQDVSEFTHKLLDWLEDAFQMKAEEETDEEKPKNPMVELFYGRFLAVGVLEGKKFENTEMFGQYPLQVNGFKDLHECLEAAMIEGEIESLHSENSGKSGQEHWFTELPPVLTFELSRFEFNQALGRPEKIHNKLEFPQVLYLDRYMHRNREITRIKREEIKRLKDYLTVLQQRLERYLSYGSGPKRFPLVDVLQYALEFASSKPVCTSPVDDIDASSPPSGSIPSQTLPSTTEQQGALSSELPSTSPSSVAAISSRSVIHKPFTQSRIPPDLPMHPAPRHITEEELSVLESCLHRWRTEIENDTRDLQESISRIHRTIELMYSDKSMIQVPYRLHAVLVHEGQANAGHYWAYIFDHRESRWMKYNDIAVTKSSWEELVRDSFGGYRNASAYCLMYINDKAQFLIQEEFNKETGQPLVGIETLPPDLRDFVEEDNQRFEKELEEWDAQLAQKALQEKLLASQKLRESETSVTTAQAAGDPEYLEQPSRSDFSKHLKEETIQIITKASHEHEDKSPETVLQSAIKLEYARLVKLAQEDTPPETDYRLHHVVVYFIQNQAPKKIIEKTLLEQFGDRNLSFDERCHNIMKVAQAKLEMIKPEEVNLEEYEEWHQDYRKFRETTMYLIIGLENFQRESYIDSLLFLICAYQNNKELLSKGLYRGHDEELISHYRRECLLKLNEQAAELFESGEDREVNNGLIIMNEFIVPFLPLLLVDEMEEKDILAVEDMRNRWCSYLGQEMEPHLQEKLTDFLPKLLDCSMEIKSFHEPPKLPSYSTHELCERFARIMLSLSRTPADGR
Type: biochemical
Summary of the method: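 Inhibition is quantified as IC50 by 4-parameter fit of fluorescence (485/535 nm) from Ub-Rh110 hydrolysis. Enzyme USP25-His6 at 75 pM with 30 min compound preincubation, then 25 nM substrate for 45 min at room temperature in pH 8.0 Tris buffer containing BME.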
`Cc1ccc2c(N)c(C(=O)N[C@H]3COc4cc(C5(F)CCNCC5)ccc4C3)sc2n1` [Example 8-1, (R)-3-Amino-N-(7-(4-fluoropiperidin-4-yl)chroman-3-yl)-6-methylthieno[2,3-b]pyridine-2-carboxamide] was tested, and the IC50 was 50 to 200 nM. Compound `Cc1ccc2c(N)c(C(=O)N[C@H]3COc4cc(N5CCNCC5)cc(F)c4C3)sc2n1` [Example 10-1, (R)-3-amino-N-(5-fluoro-7-(piperazin-1-yl)chroman-3-yl)-6-methylthieno[2,3-b]pyridine-2-carboxamide] has an IC50 of 50 to 200 nM. Work on `CO[C@@H]1CN(c2cc(F)c3c(c2)OC[C@H](NC(=O)c2sc4nc(C)ccc4c2N)C3)C[C@H]1N` [Example 10-2, 3-amino-N-((R)-7-((3R,4R)-3-amino-4-methoxypyrrolidin-1-yl)-5-fluorochroman-3-yl)-6-methylthieno[2,3-b]pyridine-2-carboxamide] yielded an IC50 of 200 to 2000 nM. In the case of `[2H]C1([2H])NC([2H])([2H])C([2H])([2H])N(c2cc(F)c3c(c2)OC[C@H](NC(=O)c2sc4nc(C)ccc4c2N)C3)C1([2H])[2H]` [Example 10-4, (R)-3-amino-N-(5-fluoro-7-(piperazin-l-yl-2,2,3,3,5,5,6,6-d8)chroman-3-yl)-6-methylthieno[2,3-b]pyridine-2-carboxamide], the IC50 is reported as 50 to 200 nM. For `Cc1ccc2c(N)c(C(=O)N[C@@H]3COc4cc(N5CCNCC5)cc(F)c4C3)sc2n1` [Example 10-5, (S)-3-amino-N-(5-fluoro-7-(piperazin-1-yl)chroman-3-yl)-6-methylthieno[2,3-b]pyridine-2-carboxamide], the IC50 was over 2000 nM. `Cc1ccc2c(N)c(C(=O)N[C@H]3COc4cc(N5CC6CNCC(C5)O6)cc(F)c4C3)sc2n1` [Example 10-6, N-((3R)-7-(9-oxa-3,7-diazabicyclo[3.3.1]nonan-3-yl)-5-fluorochroman-3-yl)-3-amino-6-methylthieno[2,3-b]pyridine-2-carboxamide] gave an IC50 of 50 to 200 nM. Compound `Cc1cc(C)c2c(N)c(C(=O)N[C@H]3COc4cc(N5CC6CC(C5)N6)cc(F)c4C3)sc2n1` [Example 10-7, N-((3R)-7-(3,6-diazabicyclo[3.1.1]heptan-3-yl)-5-fluorochroman-3-yl)-3-amino-4,6-dimethylthieno[2,3-b]pyridine-2-carboxamide] has an IC50 of 50 to 200 nM. With `Cc1cnc2c(N)c(C(=O)N[C@H]3COc4cc(N5CC6CC(C5)N6)cc(F)c4C3)sc2n1` [Example 10-8, N-((3R)-7-(3,6-diazabicyclo[3.1.1]heptan-3-yl)-5-fluorochroman-3-yl)-7-amino-3-methylthieno[2,3-b]pyrazine-6-carboxamide] the IC50 was 50 to 200 nM. `Cc1cc(C)c2c(N)c(C(=O)N[C@H]3COc4cc(N5CCNCC5)cc(F)c4C3)sc2n1` [Example 10-9, (R)-3-amino-N-(5-fluoro-7-(piperazin-1-yl)chroman-3-yl)-4,6-dimethylthieno[2,3-b]pyridine-2-carboxamide] gave an IC50 of 50 to 200 nM. `Cc1cnc2c(N)c(C(=O)N[C@H]3COc4cc(N5CCNCC5)cc(F)c4C3)sc2n1` [Example 10-10, (R)-7-amino-N-(5-fluoro-7-(piperazin-1-yl)chroman-3-yl)-3-methylthieno[2,3-b]pyrazine-6-carboxamide] was tested, and the IC50 was 50 to 200 nM. `COc1ccc2c(N)c(C(=O)N[C@H]3COc4cc(N5CCNCC5)cc(F)c4C3)sc2n1` [Example 10-11, (R)-3-amino-N-(5-fluoro-7-(piperazin-1-yl)chroman-3-yl)-6-methoxythieno[2,3-b]pyridine-2-carboxamide] showed an IC50 of 50 to 200 nM. In the case of `Cc1cnc2c(N)c(C(=O)N[C@H]3COc4cc(N5CC6CNCC(C5)O6)cc(F)c4C3)sc2n1` [Example 10-12, N-((3R)-7-(9-oxa-3,7-diazabicyclo[3.3.1]nonan-3-yl)-5-fluorochroman-3-yl)-7-amino-3-methylthieno[2,3-b]pyrazine-6-carboxamide], the IC50 is reported as 1 to 50 nM. `Cc1cc(C)c2c(N)c(C(=O)N[C@H]3COc4cc(N5CC6CNCC(C5)O6)cc(F)c4C3)sc2n1` [Example 10-13, N-((3R)-7-(9-oxa-3,7-diazabicyclo[3.3.1]nonan-3-yl)-5-fluorochroman-3-yl)-3-amino-4,6-dimethylthieno[2,3-b]pyridine-2-carboxamide] was tested, and the IC50 was 1 to 50 nM. `Cc1cc(C(F)(F)F)c2c(N)c(C(=O)N[C@H]3COc4cc(N5CCNCC5)cc(F)c4C3)sc2n1` [Example 10-14, (R)-3-amino-N-(5-fluoro-7-(piperazin-1-yl)chroman-3-yl)-6-methyl-4-(trifluoromethyl)thieno[2,3-b]pyridine-2-carboxamide] showed an IC50 of 50 to 200 nM. `Cc1ccc2c(N)c(C(=O)N(C)[C@H]3COc4cc(N5CCNCC5)cc(F)c4C3)sc2n1` [Example 10-15, 3-amino-N-[(3R)-5-fluoro-7-(piperazin-1-yl)-3,4-dihydro-2H-1-benzopyran-3-yl)-N,6-dimethylthieno[2,3-b]pyridine-2-carboxamide] gave an IC50 of over 2000 nM.

Same assay, conditions: Ubiquitin-Rhodamine 110 assay, format Example A-2; read-out: USP25 A-2 IC50 range
`Cc1ccc2c(N)c(C(=O)N[C@H]3CCc4c(F)c(N5CC6CNCC(C5)O6)cc(F)c4C3)sc2n1` (single isomer, unassigned) [Example 22-3] gave an IC50 of over 2000 nM. Work on `Cc1ccc2c(N)c(C(=O)N[C@@H]3CCc4c(F)c(N5CC6CNCC(C5)O6)cc(F)c4C3)sc2n1` (single isomer, unassigned) [Example 22-4] yielded an IC50 of 1 to 50 nM. With `Cc1ccc2c(N)c(C(=O)N[C@@H]3CCc4c(F)c(N5CC6CCC(C5)N6)cc(F)c4C3)sc2n1` (single isomer, unassigned) [Example 22-6] the IC50 was over 2000 nM. `CO[C@H]1CN(c2ccc3c(n2)CC[C@H](NC(=O)c2sc4nc(C)cnc4c2N)C3)C[C@@H]1N` (single isomer, unassigned) [Example 23-1] was tested, and the IC50 was over 2000 nM. Work on `CO[C@H]1CN(c2ccc3c(n2)CC[C@@H](NC(=O)c2sc4nc(C)cnc4c2N)C3)C[C@@H]1N` (single isomer, unassigned) [Example 23-2] yielded an IC50 of over 2000 nM. `Cc1ccc2c(N)c(C(=O)N[C@H]3COc4cc(N5CC6CCC(C5)N6)c(F)c(F)c4C3)sc2n1` [Example 13-3, N-((3R)-7-(3,8-diazabicyclo[3.2.1]octan-3-yl)-5,6-difluorochroman-3-yl)-3-amino-6-methylthieno[2,3-b]pyridine-2-carboxamide] was tested, and the IC50 was over 2000 nM. `Cc1ccc2c(N)c(C(=O)N[C@@H]3COc4cc(N5CC6CCC(C5)N6)c(F)c(F)c4C3)sc2n1` [Example 13-4, N-((3S)-7-(3,8-diazabicyclo[3.2.1]octan-3-yl)-5,6-difluorochroman-3-yl)-3-amino-6-methylthieno[2,3-b]pyridine-2-carboxamide] was tested, and the IC50 was 50 to 200 nM. In the case of `Cc1ccc2c(N)c(C(=O)N[C@H]3COc4cc(N5CCNCC5)c(Cl)cc4C3)sc2n1` [Example 13-5, (R)-3-amino-N-(6-chloro-7-(piperazin-1-yl)chroman-3-yl)-6-methylthieno[2,3-b]pyridine-2-carboxamide], the IC50 is reported as over 2000 nM. Work on `Cc1ccc2c(N)c(C(=O)N[C@@H]3COc4c(ccc(N5CCNCC5)c4Cl)C3)sc2n1` [Example 13-8, (S)-3-amino-N-(8-chloro-7-(piperazin-1-yl)chroman-3-yl)-6-methylthieno[2,3-b]pyridine-2-carboxamide] yielded an IC50 of over 2000 nM. `Cc1ccc2c(N)c(C(=O)N[C@H]3COc4c(ccc(N5CCNCC5)c4Cl)C3)sc2n1` [Example 13_7, (R)-3-amino-N-(8-chloro-7-(piperazin-1-yl)chroman-3-yl)-6-methylthieno[2,3-b]pyridine-2-carboxamide] was tested, and the IC50 was 50 to 200 nM.
